In brackets after ≈: the same amount, converted by molar mass. Activity calls are given as the source filed them. The rule behind the calls is not given here. Numbered stars: 1 amine (or outer) side, 2 acyl side, 3 side chain; on linkers, the order of the positions; unused ones are H or OH. Bridge positions count the residues as written; N and C are the ends. Square brackets hold non-standard residues; d marks the D form. Peptide text beside a SMILES is read from it. * marks the point of attachment. pTerphenylCO(4''-OnC5H11) = CCCCCOc1ccc(-c2ccc(-c3ccc(C(=O)*)cc3)cc2)cc1; Orn(4R-OH,5R-OH) = O=C([C@H](C[C@@H](O)[C@@H](O)N[*:3])N[*:1])[*:2]; hTyr(3S-OH,4S-OH) = N[C@H](C(=O)O)[C@H](O)[C@@H](O)c1ccc(O)cc1; Pro(3S-OH,4S-Me) = C[C@H]1CN[C@H](C(=O)O)[C@H]1O; Hyp = O=C(O)[C@@H]1C[C@@H](O)CN1
Legend:
Candida albicans [1] = experiment: Antifungal activity against Candida albicans infected in mouse assessed as fungal load in brain at 60 mg/kg, po after 10 days; type: functional
[2] = Plasma concentration in mouse infected with Candida albicans at 60 mg/kg, po after 6 hrs; type: ADME, organism-based; parameters: dose 60 mg/kg, route oral; conditions: read-out: MIC
[3] = Plasma concentration in mouse infected with Candida albicans at 60 mg/kg, po after 3 hrs; type: ADME, organism-based; parameters: dose 60 mg/kg, route oral; conditions: read-out: MIC
[4] = Plasma concentration in mouse infected with Candida albicans at 60 mg/kg, po after 1 hr; type: ADME, organism-based; parameters: dose 60 mg/kg, route oral; conditions: read-out: MIC
Candida albicans [5] = experiment: Antifungal activity against Candida albicans infected in mouse assessed as decrease in fungus-induced mortality rate at 10 mg/kg, ip; type: functional, organism-based; parameters: dose 10 mg/kg
Candida albicans [6] = experiment: Antifungal activity against Candida albicans infected in mouse assessed as decrease in fungus-induced mortality rate at 60 mg/kg, po; type: functional, organism-based; parameters: dose 60 mg/kg
Candida albicans [7] = experiment: Antifungal activity against Candida albicans; type: functional
[8] = Plasma concentration in mouse infected with Candida albicans at 60 mg/kg, po after 12 hrs; type: ADME, organism-based; parameters: dose 60 mg/kg, route oral; conditions: read-out: MIC
[9] = Plasma concentration in mouse infected with Candida albicans at 60 mg/kg, po after 24 hrs; type: ADME, organism-based; parameters: dose 60 mg/kg, route oral; conditions: read-out: MIC
[10] = Plasma concentration in mouse infected with Candida albicans at 10 mg/kg, ip after 24 hrs; type: ADME, organism-based; parameters: dose 10 mg/kg, route intraperitoneal; conditions: read-out: MIC
[11] = Plasma concentration in mouse infected with Candida albicans at 5 mg/kg, ip after 6 hrs; type: ADME, organism-based; parameters: dose 5 mg/kg, route intraperitoneal; conditions: read-out: MIC
Candida albicans [12] = experiment: Antifungal activity against Candida albicans infected in mouse assessed as fungal load in brain at 10 mg/kg, ip after 10 days; type: functional; conditions: route intraperitoneal
Candida albicans [13] = experiment: Antifungal activity against Candida albicans infected in mouse assessed as decrease in fungus-induced mortality rate at 5 mg/kg, ip; type: functional, organism-based; parameters: dose 5 mg/kg
[14] = Plasma concentration in mouse infected with Candida albicans at 10 mg/kg, ip after 3 hrs; type: ADME, organism-based; parameters: dose 10 mg/kg, route intraperitoneal; conditions: read-out: MIC
[15] = Plasma concentration in mouse infected with Candida albicans at 5 mg/kg, ip after 12 hrs; type: ADME, organism-based; parameters: dose 5 mg/kg, route intraperitoneal; conditions: read-out: MIC
[16] = Plasma concentration in mouse infected with Candida albicans at 5 mg/kg, ip after 3 hrs; type: ADME, organism-based; parameters: dose 5 mg/kg, route intraperitoneal; conditions: read-out: MIC
[17] = Plasma concentration in mouse infected with Candida albicans at 10 mg/kg, ip after 6 hrs; type: ADME, organism-based; parameters: dose 10 mg/kg, route intraperitoneal; conditions: read-out: MIC
[18] = Plasma concentration in mouse infected with Candida albicans at 10 mg/kg, ip after 12 hrs; type: ADME, organism-based; parameters: dose 10 mg/kg, route intraperitoneal; conditions: read-out: MIC
[19] = Plasma concentration in mouse infected with Candida albicans at 10 mg/kg, ip after 1 hr; type: ADME, organism-based; parameters: dose 10 mg/kg, route intraperitoneal; conditions: read-out: MIC
[20] = Plasma concentration in mouse infected with Candida albicans at 5 mg/kg, ip after 1 hr; type: ADME, organism-based; parameters: dose 5 mg/kg, route intraperitoneal; conditions: read-out: MIC
Candida albicans [21] = experiment: Antifungal activity against Candida albicans infected in mouse assessed as decrease in fungal load in brain at 5 mg/kg, ip after 10 days; type: functional, organism-based; parameters: dose 5 mg/kg
[22] = Plasma concentration in mouse infected with Candida albicans at 5 mg/kg, ip after 24 hrs; type: ADME, organism-based; parameters: dose 5 mg/kg, route intraperitoneal; conditions: read-out: MIC

**Q.** For `C[C@@H](c1ncncc1F)[C@](O)(Cn1cncn1)c1ccc(F)cc1F` [VORICONAZOLE], which log10CFU/g (Candida albicans [1]) is on record?
**A.** 3.23

**Q.** And the concentration at 6 h [2]?
**A.** 9470 ng/mL

**Q.** And the concentration at 3 h [3]?
**A.** 7280 ng/mL

**Q.** What about the concentration at 1 h [4] of the same molecule?
**A.** 7410 ng/mL

**Q.** And the Activity (Candida albicans [5])?
**A.** Active

**Q.** And the inhibition (Candida albicans [6])?
**A.** Active

**Q.** What about the MIC (Candida albicans [7]) of the same molecule?
**A.** 0.06 µg/mL (≈ 0.172 µM)

**Q.** And the concentration at 12 h [8]?
**A.** 5370 ng/mL

**Q.** What about the concentration at 24 h [9] of the same molecule?
**A.** 160 ng/mL

**Q.** Which results are given for `CCCCCOc1ccc(-c2ccc(-c3ccc(C(=O)N[C@H]4C[C@@H](O)[C@@H](O)NC(=O)[C@@H]5[C@@H](O)[C@@H](C)CN5C(=O)[C@H]([C@@H](C)O)NC(=O)[C@H]([C@H](O)[C@@H](O)c5ccc(O)cc5)NC(=O)[C@@H]5C[C@@H](O)CN5C(=O)[C@H]([C@@H](C)O)NC4=O)cc3)cc2)cc1` [ANIDULAFUNGIN] ({pTerphenylCO(4''-OnC5H11)}-[Orn(4R-OH,5R-OH)]T[Hyp][hTyr(3S-OH,4S-OH)]T[Pro(3S-OH,4S-Me)]; lactam 1-C)?
**A.** concentration at 24 h [10]: 1390 ng/mL; concentration at 6 h [11]: 1660 ng/mL; log10CFU/g (Candida albicans [12]): 2.65; inhibition (Candida albicans [13]): inactive; concentration at 3 h [14]: 4910 ng/mL; concentration at 12 h [15]: 1180 ng/mL; concentration at 3 h [16]: 1730 ng/mL; concentration at 6 h [17]: 3180 ng/mL; MIC (Candida albicans [7]): 0.03 µg/mL (≈ 0.0263 µM); concentration at 12 h [18]: 2730 ng/mL; concentration at 1 h [19]: 4020 ng/mL; concentration at 1 h [20]: 2500 ng/mL; inhibition (Candida albicans [21]): inactive; concentration at 24 h [22]: 180 ng/mL

From ChEMBL document CHEMBL1649564, “Anidulafungin treatment of candidal central nervous system infection in a murine model” (Antimicrob Agents Chemother, 2009)
